Counter-ions that a name gives are not always drawn. Like-named read-outs stand apart in the source and are kept apart here. Each block holds one compound with its values, some of them ahead of it.
Legend:
[1] = tested on: leukaemia cells; details: cited from earlier work
[2] = tested on: CaCo2; experiment: Cell cycle analysis by flow cytometry; type: cell-based, human; details: IC50 concentration, 96 h
Method: (§1) CycleTEST™ PLUS DNA Reagent Kit (Becton Dickinson GmbH, Heidelberg, Germany) for cell cycle analysis was used, according to the instructions of the manufacturer. Briefly, the cells were harvested with trypsin, washed with PBS, and resuspended in CycleTEST Buffer. The cells were centrifuged and resuspended in solution A. After incubation for 10 min at room temperature, solution B was added and incubated. After adding solution C, the samples were incubated at 4°C protected from light. The samples were stored on ice and protected from light until analysis by FACScan flow cytometer (Becton Dickinson GmbH, Heidelberg, Germany).

[3] = tested on: HepG2; experiment: Cell cycle analysis by flow cytometry; type: cell-based, human; details: IC50 concentration, 96 h
Method: as §1

[4] = tested on: A549; experiment: Cell cycle analysis by flow cytometry; type: cell-based, human; details: IC50 concentration, 96 h
Method: as §1

[5] = tested on: A2C12; experiment: MTS cell viability assay; type: cell-based, mouse; details: Mus musculus
Method: (§2) Three human and eleven murine cancer cell lines were used. The human NSCLC cell line A549 (ACC 107) and the human colorectal carcinoma cell line CaCo2 (ACC 169) were obtained from Deutsche Sammlung von Mikroorganismen und Zellkulturen (DSMZ, Braunschweig, Germany). The human hepatocellular carcinoma cell line HepG2 (HB-8065) was obtained from American Type Culture Collection (Manassas, VA, USA). The 11 murine NSCLC cell lines were established as described recently. Cells were grown in monolayer cultures in DMEM containing 10% foetal calf serum, 4 mmol/l L-glutamine and 2% Penicillin/Streptomycin at 37°C in a humidified atmosphere of 95% air and 5% CO2.
(§3) Cell culture viability was monitored by CellTiter96® AQueous One Solution Cell Proliferation Assay (Promega GmbH, Mannheim, Germany). The cells were seeded in triplicates in 96-well microtitre plates and treated with the dual kinase inhibitors or vehicle (0.2% DMSO). After 24 h or 96 h of treatment the MTS tetrazolium reagent was added to the cells and incubated for 1 h. Absorbance at 490 nm was assayed with a Victor3 Wallac 1420 Multilabel counter (PerkinElmer, Waltham, MA, USA).

[6] = tested on: BetaD5; experiment: MTS cell viability assay; type: cell-based, mouse; details: Mus musculus
Method: as §2, §3

[7] = tested on: GammaD12; experiment: MTS cell viability assay; type: cell-based, mouse; details: Mus musculus, MTS
Method: as §2, §3

[8] = tested on: GammaA3; experiment: MTS cell viability assay; type: cell-based, mouse; details: Mus musculus
Method: as §2, §3

[9] = tested on: A2C12; experiment: Cell cycle analysis by flow cytometry; type: cell-based, mouse; details: IC50 concentration, 96 h
Method: as §1

[10] = tested on: BetaD5; experiment: Cell cycle analysis by flow cytometry; type: cell-based, mouse; details: IC50 concentration, 96 h
Method: as §1

[11] = tested on: GammaD12; experiment: Cell cycle analysis by flow cytometry; type: cell-based, mouse; details: IC50 concentration, 96 h
Method: as §1

[12] = tested on: GammaA3; experiment: Cell cycle analysis by flow cytometry; type: cell-based, mouse; details: IC50 concentration, 96 h
Method: as §1

[13] = tested on: CaCo2; experiment: MTS cell viability assay; type: cell-based, human; details: Homo sapiens
Method: as §2, §3

[14] = tested on: HepG2; experiment: MTS cell viability assay; type: cell-based, human; details: Homo sapiens
Method: as §2, §3

[15] = tested on: A549; experiment: MTS cell viability assay; type: cell-based, human; details: Homo sapiens
Method: as §2, §3

[16] = target: T1, c-Abl (Homo sapiens, UniProt P00519); experiment: Abl filter-binding kinase assay (Abtide, [γ-32P]ATP); type: biochemical; details: isolated Abl; calculated from ID50, ATP-competitive; E0 0.005, S0 0.012 µM
T1 construct: His tag; purchased Upstate (Lake Placid, NY, USA)
T1 sequence (P00519 whole entry): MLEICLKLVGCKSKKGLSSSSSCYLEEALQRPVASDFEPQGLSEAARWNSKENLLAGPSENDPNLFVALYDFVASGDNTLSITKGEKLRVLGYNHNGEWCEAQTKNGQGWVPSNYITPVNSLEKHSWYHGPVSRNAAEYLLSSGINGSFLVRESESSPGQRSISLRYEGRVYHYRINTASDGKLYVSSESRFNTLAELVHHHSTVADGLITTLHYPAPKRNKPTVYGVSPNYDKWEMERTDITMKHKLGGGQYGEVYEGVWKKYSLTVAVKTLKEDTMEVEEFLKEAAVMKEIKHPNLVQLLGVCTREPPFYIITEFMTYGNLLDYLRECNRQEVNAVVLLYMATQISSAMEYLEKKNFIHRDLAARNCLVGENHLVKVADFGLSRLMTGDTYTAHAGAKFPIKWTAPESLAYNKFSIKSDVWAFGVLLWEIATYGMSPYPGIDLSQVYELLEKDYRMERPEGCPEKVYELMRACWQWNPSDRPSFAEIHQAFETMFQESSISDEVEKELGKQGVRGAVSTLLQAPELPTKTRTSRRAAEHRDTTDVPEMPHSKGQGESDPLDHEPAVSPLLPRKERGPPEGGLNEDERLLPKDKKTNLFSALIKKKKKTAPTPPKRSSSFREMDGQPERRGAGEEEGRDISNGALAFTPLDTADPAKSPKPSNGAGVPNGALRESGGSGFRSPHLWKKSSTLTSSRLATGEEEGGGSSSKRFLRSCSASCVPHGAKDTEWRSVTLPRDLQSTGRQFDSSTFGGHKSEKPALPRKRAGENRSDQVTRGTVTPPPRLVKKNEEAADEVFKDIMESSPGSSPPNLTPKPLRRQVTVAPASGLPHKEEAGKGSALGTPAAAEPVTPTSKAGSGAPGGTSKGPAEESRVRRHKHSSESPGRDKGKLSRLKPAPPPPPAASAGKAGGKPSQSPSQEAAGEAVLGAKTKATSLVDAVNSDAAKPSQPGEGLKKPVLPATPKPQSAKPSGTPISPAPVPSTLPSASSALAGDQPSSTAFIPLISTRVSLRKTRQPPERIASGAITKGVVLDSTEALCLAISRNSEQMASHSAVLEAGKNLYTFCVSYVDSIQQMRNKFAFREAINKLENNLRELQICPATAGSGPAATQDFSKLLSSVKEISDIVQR
Method: (§4) Baculovirus-produced recombinant purified his-tagged active against human Src and Abl were purchased from Upstate (Lake Placid, NY, USA).
(§5) Src activity was measured in a filter-binding assay using the Src Assay Kit (Upstate, Lake Placid, NY, USA), according to the manufacturer's protocol, using the specific Src peptide substrate [[…]] in the presence of 0.125 pmol of Src and 0.160 pmol of [γ-^32P]ATP. Abl activity was measured in a filter-binding assay using an Abl specific peptide substrate (Abtide, Upstate). Reaction conditions were (in a final volume of 10 µl): 25 mM Tris-HCl pH 7.5, 1 mM DTT, 0.012 µM [γ-^32P]ATP, 0.022 µM c-Abl. Reactions were incubated 10 min at 30°C.The samples (9 µl) were spotted on paper cellulose filters which were washed according to the manufacturer's protocol. Filter-bound radioactivity was measured by liquid scintillation with a Microbeta-Trilux apparatus (PerkinElmer, Waltham, MA, USA).
(§6) The ID50 were converted to Ki according to a competitive mechanism with respect to the substrate ATP. […] Since (i) the ATP concentration was limiting, i.e., [ATP], Km(ATP), and (ii) the enzyme concentration was not negligible with respect to the ATP concentration, the classical Cheng-Prusoff relationship was not applicable. Consequently, Ki values were calculated according to [drawing 3] (2) where S0 is the concentration of the competing substrate (ATP) and E0 is the concentration of the enzyme. Each experiment was done in triplicate and mean values were used for the interpolation. Curve fitting was performed with the program GraphPad Prism.

[17] = target: T2, c-Src (Homo sapiens, UniProt P12931); experiment: Src filter-binding kinase assay (Src Assay Kit); type: biochemical; details: isolated Src; calculated from ID50, ATP-competitive; E0 0.005, S0 0.012 µM
T2 construct: His tag; purchased Upstate (Lake Placid, NY, USA)
T2 sequence (P12931 whole entry): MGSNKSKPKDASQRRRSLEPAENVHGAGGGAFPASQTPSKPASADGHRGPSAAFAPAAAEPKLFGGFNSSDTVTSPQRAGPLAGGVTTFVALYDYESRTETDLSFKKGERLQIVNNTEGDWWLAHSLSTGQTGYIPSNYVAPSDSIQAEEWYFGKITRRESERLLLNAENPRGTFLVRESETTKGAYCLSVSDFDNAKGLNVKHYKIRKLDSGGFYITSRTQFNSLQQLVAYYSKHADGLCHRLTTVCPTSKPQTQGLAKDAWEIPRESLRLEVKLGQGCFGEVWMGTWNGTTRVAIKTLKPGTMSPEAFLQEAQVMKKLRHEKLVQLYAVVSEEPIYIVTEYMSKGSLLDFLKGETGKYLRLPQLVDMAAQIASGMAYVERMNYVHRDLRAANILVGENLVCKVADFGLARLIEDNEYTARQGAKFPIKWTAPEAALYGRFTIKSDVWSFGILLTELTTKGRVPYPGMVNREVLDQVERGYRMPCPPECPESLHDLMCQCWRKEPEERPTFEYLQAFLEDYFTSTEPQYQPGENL
Method: as §4, §5, §6

[18] = 24 h, read-out: Calculated IC50 after single treatment for 24 h
[19] = 96 h, read-out: Calculated IC50 after daily treatment for 96 h

SMILES: Cc1ccc(NC(=O)c2ccc(CN3CCN(C)CC3)cc2)cc1Nc1nccc(-c2cccnc2)n1 [Imatinib, Imatinib mesylate]
Antiproliferative effect for leukaemia cells [1]: submicromolar range

melting point: 125 to 126 °C
IC50 ([13]; Caco-2, 24 h, read-out: Calculated IC50 after single treatment for 24 h): 89.2 ± 4.6 µM
IC50 ([13]; Caco-2, 96 h, read-out: Calculated IC50 after daily treatment for 96 h): 6.8 ± 0.9 µM
IC50 [14, 18]: 89.2 ± 4.6 µM
IC50 [14, 19]: 16.9 ± 2.6 µM
IC50 ([15]; A549, 24 h, 24 h, read-out: Calculated IC50 after single treatment for 24 h): > 100 µM
IC50 ([15]; A549, 96 h, 96 h, read-out: Calculated IC50 after daily treatment for 96 h): 8.1 ± 0.7 µM
Ki [16]: 0.12 µM
Ki [17]: 2 µM
SMILES: CC(C)Sc1nc(NCCc2ccccc2)c2cnn(CC(Cl)c3ccccc3)c2n1 (stereo not drawn) [Si142]
Cells in G1 phase [2]: 55.6%
Cells in G2 phase [2]: 11.5%
Cells in S phase [2]: 32.9%
Cells in G1 phase [3]: 53.5%
Cells in G2 phase [3]: 7.9%
Cells in S phase [3]: 38.6%
Cells in G1 phase [4]: 75.4%
Cells in G2 phase [4]: 2.2%
Cells in S phase [4]: 25.7%
IC50 [5, 18]: 40.4 ± 2.1 µM
IC50 [5, 19]: 5.3 ± 0.2 µM
IC50 [6, 18]: 11 ± 0.7 µM
IC50 [6, 19]: 8.7 ± 0.7 µM
IC50 [7, 18]: 11.8 ± 1.6 µM
IC50 [7, 19]: 7.7 ± 0.5 µM
IC50 [8, 18]: 18.7 ± 4 µM
IC50 [8, 19]: 7.1 ± 0.5 µM
Cells in G1 phase [9]: 71.3%
Cells in G2 phase [9]: 13.4%
Cells in S phase [9]: 15.3%
Cells in G1 phase [10]: 53.6%
Cells in G2 phase [10]: 25.8%
Cells in S phase [10]: 20.6%
Cells in G1 phase [11]: 33.7%
Cells in G2 phase [11]: 6.6%
Cells in S phase [11]: 59.7%
Cells in G1 phase [12]: 67%
Cells in G2 phase [12]: 15.5%
Cells in S phase [12]: 17.5%

— publication PMC2994747, “Molecular Characterization of c-Abl/c-Src Kinase Inhibitors Targeted against Murine Tumour Progenitor Cells that Express Stem Cell Markers” (PLoS ONE, 2010)
